Reference: patent publication US12226459B2, “Collagen hydrolysate for use in prevention and/or treatment of post intensive care syndrome (pics)” (ROUSSELOT B.V., priority 2022, dated 2025)

Test system: PICS mouse model
Experiment: PICS score in PICS mouse model (sepsis/ICU-care model)
Type: in vivo
Conditions: follow-up study; fluoxetine 20 mg/kg, whey protein 1.8 g/kg, daily oral gavage; in contrast to collagen hydrolysate
Protocol: A validated PICS mouse model was used, which is based on the model of Hujinami et al. (J Clin Med. 2021 April; 10(8): 1593.). The model is proven to induce PICS by mimicking ICU care following polymicrobial sepsis. This is achieved by intraperitoneal injection with cecal slurry followed by other typical ICU-related interventions (i.e. antibiotics and saline administration) for 72 h. The model incorporates a specific combination of physical (grip strength test), mental (anxiety level), and cognitive (discrimination index, habituation index, exploration time) parameters that often characterize PICS.
The development of PICS in the model was first confirmed in a pilot study (not shown herein). The mice develop PICS after ˜1 week.
The mice (C57BL6J, Charles River laboratories, France) receive collagen hydrolysate (“CH”, Peptan, Porcine ˜1800 Da, Rousselot B. V.) or the relevant controls according to the following experimental groups: • 1. No PICS+vehicle (saline), i.e. “Control” • 2. PICS+vehicle (saline), i.e. “PICS” • 3. PICS+CH 1.8 g/kg (˜10 g clinical dose), i.e. “PICS+low dose CH” • 4. PICS+CH 8 g/kg (˜44 g clinical dose), i.e. “PICS+high dose CH”
The mice are administered once a day from day 12 through day 47.
Treatment is started 4 days after the induction of PICS. The CH or vehicle is administered by daily oral gavage for a duration of […] (day 12-47). […]

In the case of `CNCCC(Oc1ccc(C(F)(F)F)cc1)c1ccccc1` (stereo not shown) [fluoxetine], the “improvement in PICS score” value is reported as “little/no improvement”.
